Patent US4772587A, “Dipeptide derivative of fatty acid” (Suntory Limited, priority 1985, dated 1988)
Residues, ends and D or L forms follow the SMILES beside them. *: point of attachment. Oleoyl = CCCCCCCC/C=C\CCCCCCCC(=O)*

Key:
[1] = Solubility in organic solvents; format: physicochemical
Excerpt: All the compouds in Table 1 are oils which are soluble in CCl4, ether, CHCl3, CH2 Cl2, AcOEt and MeOH.

ddY strain male mice = assay: Anti-hypoxia action (survival time in desiccator evacuated to 180 mmHg); format: in vivo; details: for No. of survival/used (Drug): 30 minutes before evacuation to 180 mmHg
Procedure: The compounds of the present invention were checked for their anti-hypoxia action in ddY strain male mice (body weight: 25-34 g). Each of the treated groups consisted of 7 to 10 mice. Test samples were prepared by adding 2 to 3 drops of Tween 80® to physiological saline and suspending the respective compounds in the saline. The so conditioned test samples were administered (0.1 m 10 g) to each of the mice used.
At 30 minutes after the administration, each of the mice was placed in a desiccator having a volume of 1 l, and the desiccator was evacuated to 180 mmHg using a vacuum pump. The period of time from the start of the evacuation until the arrest of breathing was defined as Survival Time (minute).
When a mouse survived for 15 minutes or more, the survival time was recorded as being 15 minutes. Student's t-test was employed for significance analysis.

prolyl endopeptidase = prolyl endopeptidase (Elizabethkingia meningoseptica, UniProt P27028); assay: Measurement of anti-prolyl endopeptidase activity (decomposition of Z-glycyl-proline-β-naphthylamide); format: biochemical; details: substrate Z-glycyl-proline-β-naphthylamide, phosphate buffer pH 7.0
Procedure: The method of Yoshimoto and Tsuru (T. Yoshimoto and D. Tsuru, Agr. Biol. Chem. 42, 2417, 1978) was used to measure the anti-prolyl endopeptidase activities of several compounds of the present invention. A mixture of 0.0025M Z-glycyl-proline-β-naphthylamide (0.25 ml), 0.1M phosphate buffer (pH, 7.0; 0.99 ml) and a solution of a particular anti-prolyl endopeptidase compound (0.01 ml) was incubated in a test tube at 37° C. for 3 minutes. Thereafter, 0.1 ml of a solution of prolyl endopeptidase (0.2 U/ml) was added and the mixture was heated at 35° C. for 10 minutes. After the reaction, 2.0 ml of Triton X-100 in 1M acetate buffer (pH, 4.0) was added to the reaction mixture until the final concentration of the surfactant was 10%. The mixture was left at room temperature for 15 minutes and the absorbance (a) at 410 nm was measured.
A sample for blind test was prepared by using the buffer instead of the anti-prolyl endopeptidase compound and its absorbance (b) was also measured. The percent inhibition of prolyl endopeptidase was calculated by the formula: ((b-a)/b)×100, and the amount of a specific compound to achieve 50% inhibition (IC50) was determined.

[2] = system: experimental amnesia caused in rats by scopolamine; assay: Preventive effect against experimental amnesia caused in rats by scopolamine (passive avoidance learning); format: in vivo, Wister male rats
[3] = system: experimental amnesia caused in rats by scopolamine; assay: as above; format: in vivo, Wister male rats; details: for Avoidance time 24 hrs. later / Avoidance time 48 hrs. later / No. of amnesic rats/No. of rats tested / Percentage amnesia: scopolamine 3 mg/kg i.p. after learning
Procedure: Several of the anti-prolyl endopeptidase compounds of the present invention were checked for their ability to prevent the inhibition of long-term memory fixation by scopolamine. Solutions of physiological saline (0.3 ml) that contained selected compounds of the present inventions in varying amounts ([…], 0.25 mg, 0.1 mg, 0.025 mg and 0.010 mg/kg) were administered intraperitoneally once a day to Wister male rats (100-120 g). One hour after the administration, electric shocks (1.7 mA) were applied to the rats so that they would acquire passive avoidance learning. Immediately thereafter, scopolamine was administered intraperitoneally to each rat in an amount of 3 mg per kg of body weight.
The result of the test was assessed both 24 hours and 48 hours after the administration of scopolamine. The number of amnesic rats and of sound rats was counted for each of the control group (rats to which the test compounds had not been administered but to which only scopolamine and physiological saline had been administered intraperitoneally and the treated group (rats to which both the test compound and scopolamine had been administered). The results are shown in Table 3.

prolyl endopeptidase, sequence (P27028 21-705): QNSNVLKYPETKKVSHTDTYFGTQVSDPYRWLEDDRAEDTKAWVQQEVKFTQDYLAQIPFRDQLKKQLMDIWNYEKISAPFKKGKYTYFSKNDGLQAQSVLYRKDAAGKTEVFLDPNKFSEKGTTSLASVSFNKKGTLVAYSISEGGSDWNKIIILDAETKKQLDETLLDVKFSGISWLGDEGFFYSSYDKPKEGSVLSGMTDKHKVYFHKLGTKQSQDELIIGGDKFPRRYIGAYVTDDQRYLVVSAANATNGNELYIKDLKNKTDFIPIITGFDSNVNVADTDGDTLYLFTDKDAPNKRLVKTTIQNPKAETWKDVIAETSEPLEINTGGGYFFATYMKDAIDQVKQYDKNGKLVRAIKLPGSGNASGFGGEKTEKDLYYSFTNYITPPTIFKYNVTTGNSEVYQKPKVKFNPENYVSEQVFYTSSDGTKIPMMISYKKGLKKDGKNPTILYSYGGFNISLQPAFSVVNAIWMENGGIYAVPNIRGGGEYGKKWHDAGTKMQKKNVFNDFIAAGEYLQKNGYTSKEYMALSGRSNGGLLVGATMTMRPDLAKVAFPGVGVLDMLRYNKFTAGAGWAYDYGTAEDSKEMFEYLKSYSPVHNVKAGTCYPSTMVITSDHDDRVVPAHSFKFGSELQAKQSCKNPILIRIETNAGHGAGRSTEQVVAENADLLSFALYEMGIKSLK

## CCCCCCCC/C=C\CCCCCCCC(=O)NC(Cc1ccccc1)C(=O)N1CCCC1C(=O)OC (stereo not drawn) [SUAM 1194, oleoyl-Phe-Pro-OMe] (Oleoyl-Phe-Pro-OMe; configuration not given here)
[1]
  solubility in benzene: soluble in benzene

## CCCCCCCC/C=C\CCCCCCCC(=O)N[C@@H](Cc1ccccc1)C(=O)N1CCC[C@H]1C=O [SUAM 1212, oleoyl-Phe-Pro-CHO] (Oleoyl-Phe-Pro-aldehyde)
ddY strain male mice; 1 mg/kg i.p.
  Survival time Ratio (Drug/Control): 1.27
  No. of survival/used (Drug): 0/7
ddY strain male mice; 1 mg/kg i.p., p < 0.05 vs control
  Survival time (Mean ± S.E.), Drug: 2.94 ± 0.27 mini
ddY strain male mice; 10 mg/kg i.p.
  Survival time Ratio (Drug/Control): 1.28
  No. of survival/used (Drug): 0/7
ddY strain male mice; 10 mg/kg i.p., p < 0.1 vs control
  Survival time (Mean ± S.E.), Drug: 2.89 mini
Prolyl endopeptidase
  IC50 (amount of compound to achieve 50% inhibition): 0.4 ng/test tube
[2]; administered orally (so in the source) in an amount of 0.025 mg/kg
  anti-amnesic action (in words): strong anti-amnesic action
[3]; sample 25 μg/kg i.p.
  Avoidance time 24 hrs. later: 300 s
  Avoidance time 48 hrs. later: 285 s
  No. of amnesic rats/No. of rats tested: 0/10
  Percentage amnesia: 0%

## CCCCCCCC/C=C\CCCCCCCC(=O)NC(C(=O)N1CCCC1C=O)C(C)C (stereo not drawn) [SUAM 1156, oleoyl-Val-Pro-CHO] (Oleoyl-Val-Pro-aldehyde; configuration not given here)
Prolyl endopeptidase
  IC50 (amount of compound to achieve 50% inhibition): 0.7 ng/test tube
[2]; administered orally (so in the source) in an amount of 0.1 mg/kg
  anti-amnesic action (in words): considerably excellent anti-amnesic action
[2]; sample 1 mg/kg i.p., scopolamine 3 mg/kg i.p. after learning
  Avoidance time 48 hrs. later: 119.8 s
[3]; administered orally (so in the source) in an amount of 1 mg/kg
  anti-amnesic action (in words): no remarkable effect
[3]; sample 100 μg/kg i.p.
  Avoidance time 24 hrs. later: 300 s
  Avoidance time 48 hrs. later: 276.4 s
  No. of amnesic rats/No. of rats tested: 1/10
  Percentage amnesia: 10%
[3]; sample 250 μg/kg i.p.
  Avoidance time 24 hrs. later: 240.6 s
  Avoidance time 48 hrs. later: 226.0 s
  No. of amnesic rats/No. of rats tested: 2/10
  Percentage amnesia: 20%
[3]; sample 1 mg/kg i.p.
  Avoidance time 24 hrs. later: 184.0 s
  No. of amnesic rats/No. of rats tested: 5/10
  Percentage amnesia: 50%
